Columns and labels:
Format in all cases: cell-based
JAK/STAT = assay: SelectScreen CellSensor pathway inhibition, JAK/STAT; details: Homo sapiens; ISRE-bla Jurkat, stimulus IFN-alpha
Procedure: Inhibition of various cellular pathways known to be involved in malignancy was tested using the SelectScreen Cell-based Pathway Profiling GeneBLAzer™ cell signaling pathway specific CellSensor™ cell lines ((Thermo Fisher). The assay is based on a beta-lactamase reporter activity which is modulated and can be measured quantitatively and selectively with the LiveBLAzer™-FRET B/G Loading Substrate. SelectScreen Cell-Based Pathway Profiling Service uses XLfit from IDBS. The dose response curve is curve fit to model number 205 (sigmoidal dose-response model). Custom logic was built by Thermo Fisher for the data analysis tool to address the different compound characteristics that can be observed with functional assays.
JAK/STAT—ISRE-bla HEK 293T—Inhibitor Screen, Activated by IFN-Alpha
ISRE-bla HEK 293T cells are thawed and resuspended in Assay Media (OPTI-MEM, 0.5% dialyzed FBS, 0.1 mM NEAA, 1 mM Sodium Pyruvate, 100 U/mL/[…] Pen/Strep) to a concentration of 625,000 cells/mL. 32 μL of cell suspension is added to each well of a 384-well TC-Treated assay plate. Cells in Assay Media are incubated for 16-24 hours in the plate at 37° C./5% CO2 in a humidified incubator. […] 4 μL of 10× control activator IFN-alpha at the pre-determined EC80 concentration is added to wells containing the control inhibitor or compounds. […] The plate is read on a fluorescence plate reader.

NCI-H1299 = assay: CellTiter-Glo cell viability, NCI-H1299; details: Homo sapiens, NCI-H1299; H1299 cells, 72 h with compound
Procedure: (§1) Antitumor activity against a panel of cancer cell lines Antitumor activity of the compounds was assessed by using the CellTiter-Glow® Luminescent Cell Viability assay (Promega #G7572) according to the manufacturer's instructions. The compounds were tested at 5 or 6 concentrations in 1:2 dilution increments (highest concentration 10 µM) in triplicate well conditions.
(§2) Tumor cells were grown at 37° C. in a humidified atmosphere with 5% CO2 in RPMI 1640 or DMEM medium, supplemented with 10% (v/v) fetal calf serum and 50 μg/ml gentamicin for up to 20 passages, and were passaged once or twice weekly. Cells were harvested using TrypLE or PBS buffer containing 1 mM EDTA, and the percentage of viable cells is determined using a cell counter.
(§3) Cells were harvested from exponential phase cultures, counted and plated in 96 well flat-bottom microtiter plates at a cell density depending on the cell line's growth rate (4,000-20,000 cells/well depending on the cell line's growth rate) in RPMI 1640 or DMEM medium supplemented with 10% (v/v) fetal calf serum and 50 μg/ml gentamicin (140 μl/well). Cultures were incubated at 37° C. and 5% CO2 in a humidified atmosphere. After 24 h, 10 μl of test compounds or control medium are added, and left on the cells for another 72 h. Compounds were serially diluted in DMSO, transferred in cell culture medium, and added to the assay plates. The DMSO concentration was kept constant at <0.2% v/v across the assay plate. Viability of cells was quantified by the CellTiter-Glow® Luminescent Cell Viability assay (Promega #G7572). Luminescence was measured with the microplate luminometer (En Vision Perkin Elmer).
(§4) Sigmoidal concentration-response curves were fitted to the data points (test-versus-control, T/C values) obtained for each tumor model using Graph Pad prism 5.02 software. IC50 values are reported as absolute IC50 values, being the concentration of test compound at the intersection of the concentration-response curves with T/C=50%.

MeWo = assay: Caspase-Glo 3/7 apoptosis assay, MeWo; details: MeWo cells, 10 μM, 24 h
Procedure: Apoptosis activity was evaluated using Caspase-Glo 3/7 Assay kit (Promega-G8091) according to the manufacturer's instructions. Cells were grown as above and harvested from exponential phase cultures, counted and plated in 96 black well flat-bottom microtiter plates at a cell density depending on the cell line's growth rate (3,000-10,000 cells/well depending on the cell line's growth rate). Following an overnight incubation, compounds were added to the cell plates at various concentrations (highest at […]) with the DMSO concentration maintained at 0.1% for a 24 h period treatment. 100 μL of Caspase-Glo 3/7 Reagent was added to each well of 96-well plate containing 100 μL culture medium, and after 30 min at room temperature, luminescence was measured with the microplate luminometer (EnVision Perkin Elmer). The induced relative Caspase 3/7 activity of the tested compounds was determined by the following formula: Relative Caspase 3/7 activity (fold increase)=(RLU compound−RLU blank)/(RLU control−RLU blank).

K562 = assay: CellTiter-Glo cell viability, K562; details: Homo sapiens; K562 cells, 72 h with compound
Procedure: as §1, §2
as §3, with “After 24 h, 10 μl of test compounds or control medium are added, and left on the cells for another 72 h. Compounds were serially diluted in DMSO, transferred in cell culture medium, and added to the assay plates. The DMSO concentration was kept constant at <0.2% v/v across the assay plate.” left out, “Elmer). […]” for “Elmer).”

LoVo = assay: CellTiter-Glo cell viability, LoVo; details: Homo sapiens; LoVo cells, 72 h with compound
Procedure: as §1, §2
as §3, with “After 24 h, 10 μl of test compounds or control medium are added, and left on the cells for another 72 h. Compounds were serially diluted in DMSO, transferred in cell culture medium, and added to the assay plates. The DMSO concentration was kept constant at <0.2% v/v across the assay plate.” left out, “Elmer). […]” for “Elmer).”

SHP-77 = assay: CellTiter-Glo cell viability, SHP-77; details: Homo sapiens, SHP77; SHP-77 cells, 72 h with compound
Procedure: as §1, §2
as §3, with “After 24 h, 10 μl of test compounds or control medium are added, and left on the cells for another 72 h. Compounds were serially diluted in DMSO, transferred in cell culture medium, and added to the assay plates. The DMSO concentration was kept constant at <0.2% v/v across the assay plate.” left out, “Elmer). […]” for “Elmer).”

A-673 = assay: CellTiter-Glo cell viability, A-673; details: Homo sapiens, A673; A-673 cells, 72 h with compound
Procedure: as §1, §2, §3, §4

Kelly = assay: CellTiter-Glo cell viability, Kelly; details: Kelly cells, 72 h with compound
Procedure: as §1, §2, §3, §4

Daudi = assay: CellTiter-Glo cell viability, Daudi; details: Homo sapiens; Daudi cells, 72 h with compound
Procedure: as §1, §2
as §3, with “After 24 h, 10 μl of test compounds or control medium are added, and left on the cells for another 72 h. Compounds were serially diluted in DMSO, transferred in cell culture medium, and added to the assay plates. The DMSO concentration was kept constant at <0.2% v/v across the assay plate.” left out, “Elmer). […]” for “Elmer).”

Raji = assay: CellTiter-Glo cell viability, Raji; details: Homo sapiens; Raji cells, 72 h with compound
Procedure: as §1, §2
as §3, with “After 24 h, 10 μl of test compounds or control medium are added, and left on the cells for another 72 h. Compounds were serially diluted in DMSO, transferred in cell culture medium, and added to the assay plates. The DMSO concentration was kept constant at <0.2% v/v across the assay plate.” left out, “Elmer). […]” for “Elmer).”

SK-Mel-5 = assay: CellTiter-Glo cell viability, SK-Mel-5; details: Homo sapiens; SK-Mel-5 cells, 72 h with compound
Procedure: as §1, §2, §3, §4

COc1ccc2c(=O)c(-c3ccc(CCCC[P+](c4ccccc4)(c4ccccc4)c4ccccc4)cc3)coc2c1OC.[Br-] [SND470, (4-(4-(7,8-Dimethoxy-4-oxo-4H-chromen-3-yl)phenyl)butyl)triphenylphosphonium bromide]
IC50 (JAK/STAT): 360 nM
IC50 (NCI-H1299): 40 nM
Fold activation of Caspase 3/7 (MeWo): 2.55 Fold
IC50 (K562): 14 nM
IC50 (LoVo): 910 nM
IC50 (SHP-77): 920 nM
IC50 (A-673): 200 nM
IC50 (Kelly): 12 nM
IC50 (Daudi): 710 nM
IC50 (Raji): 530 nM
IC50 (SK-Mel-5): 470 nM
